# In US9809521B2, “Cannabidinoid derivatives” (priority 2011, dated 2017):
# Assays:
# [1] = Tetrad assay (psychoactive properties of cannabinoids); conditions: in vivo
# CB1 receptors = CB1 receptors (Homo sapiens, UniProt P21554); assay: Affinity for CB1 receptors; format: binding
# Ki67 = assay: Immunohistochemical detection of Ki67 in lung metastatic foci; format: in vivo, mouse; conditions: 1 mg/kg
# Protocol: CBD down-regulates Id-1 expression and breast cancer cell proliferation in lung metastatic foci. […] Lung tissue from mice treated with vehicle or CBD (1 mg/kg) were evaluated for Id-1 expression and Ki67, a marker of cellular proliferation (FIG. 5, panel A).
# Immunohistochemical detection of Id-1 and Ki67 was performed in lung tissues of vehicle and CBD treated mice. Nuclei were stained with hematoxylin. […] The intensity of the immunohistochemical (IHC) detection of Id-1 was then graded from 0 to 4.
# SF126 cells = assay: MTT cell proliferation assay; conditions: read-out: IC50, SF126; seven day treatment; 95% confidence limits in brackets
# caspase 3, 7, 9 and PARP = assay: Western analysis of caspases and PARP in U251 cells; format: cell-based, human; conditions: THC 1.7 μM, CBD 0.4 μM, three days
# Source text: Caspases play a primary role in the regulation of programmed cell death.
# Id-1 = assay: Quantitative Western analysis of Id-1 expression in U251 cells; format: cell-based, human
# Protocol: Quantitative Western analysis of Id-1 expression in U251 cells with or without CBD treatment. To examine whether CBD would downregulate Id-1 protein expression in a GBM based cell line, quantitative Western analysis was performed with U251 cells.
# U251 cells = assay: Organotypic brain slice invasion assay; format: cell-based, human; conditions: 1 μM
# Protocol: Effects of CBD on GBM cell invasion in In Vivo Studies. To determine whether CBD could inhibit GBM cell invasion through intact brain tissue, an organotypic brain slice assay was utilized. GFP-labeled U251 cells were treated for two days in culture with vehicle or CBD. On the third day, the cells were harvested and transferred to the top of a 0.5 mm coronal rat brain slice obtain from a postnatal day 3 rat pup. A porous cell culture insert containing the slice was suspended for three days in a well containing conditioned media with either vehicle or 1 μM CBD. […] GBM tumors were generated in nu/nu mice by intracranial injection of U251 GBM cells. […] CBD produced a robust reduction of GBM progression, decreasing the tumor area by 95% (FIG. 14, panels B and C). […] This occurred concomitantly with a decrease in tumor cell proliferation (the number of Ki67-positive nuclei was decreased by 87%±9 (p<0.0001, Student's t-test)) (FIG. 14, panel D).
# ACCM cells = assay: Lung metastasis after injection of ACCM cells; format: in vivo, mouse; conditions: daily treatment
# Protocol: Measuring the effect of CBD on the aggressiveness of head and neck as well as salivary gland cancer cells. Head and neck cancer cell lines (SAS and HSC-2 in the upper panels) and salivary gland cancer cell lines (ACCM and ACC2 in the lower panels) were treated with CBD.
# 4T1 breast cancer cells = assay: Viability assay, combination with Paclitaxel; format: cell-based, mouse
# Protocol: Viability Assays using drug combinations and statistical analysis: Multiple viability assays in a 96 well format were run for each compound and the average percent inhibition of cell viability was calculated and transformed to fraction affected (Fa) i.e., percent inhibitory effect. Additional CI values and a dose reduction index (DRI) were also calculated using Compusyn software. After determining the (IC50/Fa0.5) values of the drugs individually, components were then combined at the following concentration ranges: controls, 0.125×IC50, 0.25×IC50, 0.5×IC50 and a combination index was calculated where CI<1, =1, and >1 indicate synergism, additive effect, and antagonism, respectively.
# Cell viability studies with 4T1 breast cancer cells using CBD in combination with Paclitaxel. […] The concentration response curves were first generated for Paclitaxel (PAC), CBD alone, and a combination of CBD and Paclitaxel (FIG. 11, panel A). The inhibitory values from the concentration response curves were then used to calculate combination index (CI) values at multiple combination ratios (FIG. 11, panel B). From which, the data was also used to calculate i) IC50 values, the slope of the curve (m) and a goodness of fit value (r).
# CB1 receptors, sequence (P21554 whole entry): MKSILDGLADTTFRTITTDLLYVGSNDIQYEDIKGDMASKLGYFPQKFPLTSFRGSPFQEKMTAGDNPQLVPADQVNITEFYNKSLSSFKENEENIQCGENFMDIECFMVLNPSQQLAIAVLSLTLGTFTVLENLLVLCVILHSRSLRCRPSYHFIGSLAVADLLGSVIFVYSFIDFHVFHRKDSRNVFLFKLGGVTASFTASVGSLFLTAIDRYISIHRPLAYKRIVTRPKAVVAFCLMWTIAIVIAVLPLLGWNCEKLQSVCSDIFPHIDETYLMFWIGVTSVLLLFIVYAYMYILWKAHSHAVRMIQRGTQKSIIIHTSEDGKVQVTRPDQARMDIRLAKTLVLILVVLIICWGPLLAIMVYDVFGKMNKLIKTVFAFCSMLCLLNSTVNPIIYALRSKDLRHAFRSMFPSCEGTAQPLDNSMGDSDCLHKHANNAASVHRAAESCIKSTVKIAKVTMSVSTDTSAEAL
Compound,activity in the tetrad assay [1],affinity for CB1 receptors (CB1 receptors),Ki67 in metastatic foci (Ki67),IC50 (SF126 cells),"caspase 3, 7, 9 and PARP (caspase 3, 7, 9 and PARP)",Id-1 protein expression (Id-1),invasion of U251 cells through the organotypic brain slice (U251 cells),number of lung metastatic foci (ACCM cells),interaction with Paclitaxel (combination index) (4T1 breast cancer cells)
CCCCC(C)(C)c1cc(O)c(C2CCC(C3CCCCC3)CC2)c(O)c1 (stereo not drawn) [Compound O-1663],little activity in the tetrad assay,lower affinity for CB1 receptors in comparison to THC,,,,,,,
"C=C(C)[C@@H]1CCC(C)=C[C@H]1c1c(O)cc(CCCCC)cc1O [CBD, cannabidiol]",,,significant down-regulation of Ki67,730 nM,no changes in caspase activity were observed,concentration-dependent inhibition of Id-1 protein expression,highly effective at inhibiting invasion,significantly reduced upon CBD treatment,acts synergistically with Paclitaxel
